# Reference: the supplement of paper PMC4862054
# Legend:
# Conditions in all cases: incubation time: 72 h
# [1] = tested on: BT-474; assay: normalised response (% of control), CellTox Green; higher = less cell death (100 = DMSO, 0 = benzethonium chloride kill control)
# Procedure, shortened: (§1)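 A 20 µl suspension of breast cancer cells was seeded into each well of 384-well plates containing compound at 5 concentrations in 10-fold steps over a compound-specific 10,000-fold range. After 72 h incubation, CellTox Green fluorescence (485/520 nm) was read first, and CellTiter-Glo luminescence was read after 10 min at room temperature. Each plate was normalised against 0.1 % DMSO (100) and a positive kill control (0), and each value is the normalised signal at one concentration.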
# [2] = tested on: BT-549; assay: as above
# Procedure, shortened: as §1
# [3] = tested on: CAL-120; assay: as above
# Procedure, shortened: as §1
# [4] = tested on: CAL-51; assay: as above
# Procedure, shortened: as §1
# [5] = tested on: DU-4475; assay: as above
# Procedure, shortened: as §1
# [6] = tested on: HCC1143; assay: as above
# Procedure, shortened: as §1
# [7] = tested on: HCC1599; assay: as above
# Procedure, shortened: as §1
# [8] = tested on: HCC1937; assay: as above
# Procedure, shortened: as §1
# [9] = tested on: HDQ-P1; assay: as above
# Procedure, shortened: as §1
# [10] = tested on: Hs578T; assay: as above
# Procedure, shortened: as §1
# [11] = tested on: MCF-10A; assay: as above
# Procedure, shortened: as §1
# [12] = tested on: MDA-MB-231; assay: as above
# Procedure, shortened: as §1
# [13] = tested on: MDA-MB-436; assay: as above
# Procedure, shortened: as §1
# [14] = tested on: MDA-MB-453; assay: as above
# Procedure, shortened: as §1
# [15] = tested on: MDA-MB-468; assay: as above
# Procedure, shortened: as §1
# [16] = tested on: MFM-223; assay: as above
# Procedure, shortened: as §1
# [17] = tested on: BT-474; assay: normalised response (% of control), CellTiter-Glo; higher = more viable cells (100 = DMSO, 0 = benzethonium chloride kill control)
# Procedure: (§2)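 DSRT, 72 h incubation, CellTox Green / CellTiter-Glo readout. Signal is normalised to DMSO and benzethonium chloride controls. Value is the normalised response at dose 3.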
# [18] = tested on: BT-549; assay: as above
# Procedure: as §2
# [19] = tested on: CAL-120; assay: as above
# Procedure: as §2
# [20] = tested on: CAL-148; assay: as above
# Procedure: as §2
# [21] = tested on: CAL-51; assay: as above
# Procedure: as §2
# [22] = tested on: CAL-85-1; assay: as above
# Procedure: as §2
# [23] = tested on: DU-4475; assay: as above
# Procedure: as §2
# [24] = tested on: HCC1143; assay: as above
# Procedure: as §2
# [25] = tested on: HCC1599; assay: as above
# Procedure: as §2
# [26] = tested on: HCC1937; assay: as above
# Procedure: as §2
# [27] = tested on: HDQ-P1; assay: as above
# Procedure: as §2
# [28] = tested on: Hs578T; assay: as above
# Procedure: as §2
# [29] = tested on: MCF-10A; assay: as above
# Procedure: as §2
# [30] = tested on: MDA-MB-231; assay: as above
# Procedure: as §2
# [31] = tested on: MDA-MB-436; assay: as above
# Procedure: as §2
# [32] = tested on: MDA-MB-453; assay: as above
# Procedure: as §2
# [33] = tested on: MDA-MB-468; assay: as above
# Procedure: as §2
# [34] = tested on: MFM-223; assay: as above
# Procedure: as §2
# [35] = tested on: SK-BR-3; assay: as above
# Procedure: as §2
# [36] = tested on: CAL-148; assay: normalised response (% of control), CellTox Green; higher = less cell death (100 = DMSO, 0 = benzethonium chloride kill control)
# Procedure, shortened: as §1
# [37] = tested on: CAL-85-1; assay: as above
# Procedure, shortened: as §1
SMILES,normalised response [1],normalised response [2],normalised response [3],normalised response [4],normalised response [5],normalised response [6],normalised response [7],normalised response [8],normalised response [9],normalised response [10],normalised response [11],normalised response [12],normalised response [13],normalised response [14],normalised response [15],normalised response [16],normalised response [17],normalised response [18],normalised response [19],normalised response [20],normalised response [21],normalised response [22],normalised response [23],normalised response [24],normalised response [25],normalised response [26],normalised response [27],normalised response [28],normalised response [29],normalised response [30],normalised response [31],normalised response [32],normalised response [33],normalised response [34],normalised response [35],normalised response [36],normalised response [37]
CN[C@@H](C)C(=O)N[C@H]1CN(C(=O)CC(C)C)CC[C@H]2CC[C@@H](C(=O)NC(c3ccccc3)c3ccccc3)N2C1=O [AT-406] (100 nM),94.9%,68.8%,83%,96.3%,104%,70.4%,101%,95.2%,86.4%,97.2%,101%,35.2%,76.2%,102%,114%,104%,54%,47.4%,92.5%,102%,109%,86.6%,102%,103%,79.1%,103%,95.9%,100%,111%,63.9%,105%,89.8%,103%,102%,99.9%,,
CNC(=O)c1ccccc1Sc1ccc2c(/C=C/c3ccccn3)n[nH]c2c1 [Axitinib] (100 nM),102%,113%,99.2%,107%,104%,105%,113%,102%,116%,111%,98.7%,105%,,110%,132%,96%,104%,107%,104%,112%,81.6%,109%,111%,102%,101%,97.8%,102%,98.5%,100%,111%,102%,110%,93.8%,90.5%,103%,108%,104%
CC(O)(CS(=O)(=O)c1ccc(F)cc1)C(=O)Nc1ccc(C#N)c(C(F)(F)F)c1 (configuration not stated) [Bicalutamide] (100 nM),102%,85%,99.5%,98.3%,100%,107%,116%,106%,115%,90.6%,85.1%,110%,108%,108%,131%,89.8%,108%,102%,105%,110%,80.7%,98.9%,105%,103%,103%,100%,100%,96.7%,106%,117%,107%,114%,105%,107%,113%,102%,95.9%
Cc1nc(C(=O)NCC(=O)O)c(O)c2ccc(Oc3ccccc3)cc12 [FG-4592] (100 nM),98.2%,105%,102%,102%,105%,109%,90.1%,79.8%,106%,94.9%,101%,112%,97%,103%,114%,92.8%,101%,106%,102%,108%,97.4%,104%,103%,106%,112%,98%,98.3%,105%,115%,111%,98.6%,101%,97.1%,106%,112%,95.8%,103%
CC(C)(C)NC(=O)[C@H]1CC[C@H]2[C@@H]3CC[C@H]4NC(=O)C=C[C@]4(C)[C@H]3CC[C@]12C [Finasteride] (100 nM),99%,102%,100%,101%,102%,93.1%,104%,99.7%,83.5%,107%,95.4%,101%,94.8%,103%,98.8%,85.2%,99.2%,100%,114%,108%,87.7%,98.5%,104%,98.9%,97.8%,95.7%,96.6%,105%,110%,104%,107%,109%,94.9%,104%,101%,57.3%,100%
CC(C)C[C@H](NC(=O)[C@@H](COC(C)(C)C)NC(=O)[C@H](Cc1ccc(O)cc1)NC(=O)[C@H](CO)NC(=O)[C@H](Cc1c[nH]c2ccccc12)NC(=O)[C@H](Cc1cnc[nH]1)NC(=O)[C@@H]1CCC(=O)N1)C(=O)N[C@@H](CCCNC(=N)N)C(=O)N1CCC[C@H]1C(=O)NNC(N)=O [Goserelin] (100 nM),101%,108%,96.2%,60.7%,97.8%,55.7%,86.3%,89.5%,108%,78.9%,98.9%,89.7%,89.7%,105%,129%,99.1%,99.2%,103%,103%,93.8%,71%,97.3%,97.4%,98.7%,94.2%,95.8%,99.9%,97.1%,94%,99%,101%,101%,102%,94.9%,92.7%,87.4%,99.8%
O=C(O)CNC(=O)c1c(O)c2ccccc2n(Cc2ccccc2)c1=O [IOX-2] (500 nM),103%,97.3%,97.7%,73.4%,111%,83.3%,99.3%,95.6%,100%,99.3%,95.2%,110%,98.3%,104%,115%,101%,99.2%,94.7%,103%,92.9%,61.5%,99%,101%,98.4%,98.5%,97.2%,102%,99.4%,104%,100%,94.4%,105%,90.4%,97.1%,96.3%,73.2%,112%
CC(=O)[C@]1(O)Cc2c(O)c3c(c(O)c2[C@@H](O[C@H]2C[C@H](N)[C@H](O)[C@H](C)O2)C1)C(=O)c1ccccc1C3=O [Idarubicin] (10 nM),99.2%,83.3%,97.7%,79.8%,100%,114%,113%,55.8%,105%,114%,,106%,96%,104%,118%,97.6%,98.7%,89.7%,106%,102%,73.7%,105%,96%,109%,118%,99.2%,101%,94.5%,100%,109%,95.9%,110%,92.9%,107%,105%,93%,97.7%
